According to publication PMC7924852, “The Emericellipsins A–E from an Alkalophilic Fungus Emericellopsis alkalina Show Potent Activity against Multidrug-Resistant Pathogenic Fungi” (Journal of Fungi, 2021):
Values after ≈ are worked out from the molar mass of the structure shown.

Assays:
A. terreus 3 K [1] = assay: Broth two-fold microdilution MIC (CLSI); type: cell-based; conditions: 48 h; for Minimal Inhibitory Concentration (MIC): A. terreus 3 K, RPMI 1640 pH 7.0, 35 °C
A. niger 1133 m [2] = assay: Disc-diffusion antifungal assay; type: cell-based, Aspergillus niger; conditions: pathogenic clinical isolate; for Zone of Inhibition: 40 µg/disc
[3] = test system: Aspergillus niger ATCC 16404; assay: Disc-diffusion antifungal assay; type: cell-based; conditions: for Zone of Inhibition: 40 µg/disc, A. niger ATCC 16404
[4] = test system: reference and clinical strains of Aspergillus; assay: Disc-diffusion antifungal assay, Aspergillus strains; type: cell-based; conditions: for antifungal activity against Aspergillus strains (in words): disc-diffusion, reference and clinical strains of Aspergillus
[5] = test system: isolates of Aspergillus spp.; assay: Broth microdilution MIC, ranges over mould isolates; type: cell-based; conditions: range over opportunistic and clinical isolates of Aspergillus spp. (Table 4)
A. fumigatus 390 m [6] = assay: Broth two-fold microdilution MIC (CLSI); type: cell-based, Aspergillus fumigatus; conditions: 48 h; for Minimal Inhibitory Concentration (MIC): A. fumigatus 390 m clinical isolate, RPMI 1640 pH 7.0, 35 °C
A. terreus 497 [7] = assay: Broth two-fold microdilution MIC (CLSI); type: cell-based; conditions: for Minimal Inhibitory Concentration (MIC): A. terreus 497 clinical isolate, RPMI 1640 pH 7.0, 35 °C, 48 h
A. niger ATCC 16404 = assay: Broth two-fold microdilution MIC (CLSI); type: cell-based, Aspergillus niger; conditions: for Minimal Inhibitory Concentration (MIC): A. niger ATCC 16404, RPMI 1640 pH 7.0, 35 °C, 48 h, no visible growth
A. terreus 497 [8] = assay: Disc-diffusion antifungal assay; type: cell-based; conditions: A. terreus 497, pathogenic clinical isolate; for Zone of Inhibition: 40 µg/disc
A. fumigatus VKM F-37 [9] = assay: Broth two-fold microdilution MIC (CLSI); type: cell-based, Aspergillus fumigatus; conditions: for Minimal Inhibitory Concentration (MIC): A. fumigatus VKM F-37, RPMI 1640 pH 7.0, 35 °C, 48 h
A. fumigatus 390 m [10] = assay: Disc-diffusion antifungal assay; type: cell-based, Aspergillus fumigatus; conditions: pathogenic clinical isolate; for Zone of Inhibition: 40 µg/disc
A. niger 1133 m [11] = assay: Broth two-fold microdilution MIC (CLSI); type: cell-based, Aspergillus niger; conditions: 48 h; for Minimal Inhibitory Concentration (MIC): A. niger 1133 m clinical isolate, RPMI 1640 pH 7.0, 35 °C
A. fumigatus VKM F-37 [12] = assay: Disc-diffusion antifungal assay; type: cell-based, Aspergillus fumigatus; conditions: for Zone of Inhibition: 40 µg/disc
A. terreus 3 K [13] = assay: Disc-diffusion antifungal assay; type: cell-based; conditions: for Zone of Inhibition: 40 µg/disc
Aspergillus niger 1133m = assay: Sensititre YeastOne antifungal susceptibility test; type: cell-based; conditions: Aspergillus niger, 1133M
C. tropicalis 156 [14] = assay: Sensititre YeastOne antifungal susceptibility test; type: cell-based; conditions: Candida tropicalis, 156
[15] = test system: clinical isolates of Candida; assay: Disc-diffusion antifungal assay, clinical yeast isolates; type: cell-based; conditions: range over clinical isolates of Candida (Figure S2)
C. krusei 1447 [16] = assay: Broth microdilution MIC and MFC (CLSI); type: cell-based
A. terreus 497 [17] = assay: Sensititre YeastOne antifungal susceptibility test; type: cell-based; conditions: Sensititre YeastOne; A. terreus 497
C. parapsilosis 571 [18] = assay: Sensititre YeastOne antifungal susceptibility test; type: cell-based; conditions: Lodderomyces parapsilosis, 571
Cr. laurentii 325m = assay: Sensititre YeastOne antifungal susceptibility test; type: cell-based; conditions: Papiliotrema laurentii, 325M
Candida albicans 1402 [19] = assay: Broth microdilution MIC and MFC (CLSI); type: cell-based
[20] = test system: Cryptococcus neoformans 297; assay: Sensititre YeastOne antifungal susceptibility test; type: cell-based; conditions: Cryptococcus neoformans, 297
C. glabrata 1402 [21] = assay: Sensititre YeastOne antifungal susceptibility test; type: cell-based; conditions: Nakaseomyces glabratus, 1402
C. tropicalis 156 [22] = assay: Broth microdilution MIC and MFC (CLSI); type: cell-based
C. glabrata 1402 [23] = assay: Broth microdilution MIC and MFC (CLSI); type: cell-based
[24] = test system: Cryptococcus neoformans 297; assay: Broth microdilution MIC and MFC (CLSI); type: cell-based
Candida albicans 1402 [25] = assay: Sensititre YeastOne antifungal susceptibility test; type: cell-based; conditions: Candida albicans, 1402
C. laurentii 325m = assay: Broth microdilution MIC and MFC (CLSI); type: cell-based, Cr. laurentii; conditions: Papiliotrema laurentii
A. fumigatus 390m = assay: Sensititre YeastOne antifungal susceptibility test; type: cell-based; conditions: Aspergillus fumigatus, 390M
C. krusei 1447 [26] = assay: Sensititre YeastOne antifungal susceptibility test; type: cell-based; conditions: Pichia kudriavzevii, 1447
C. parapsilosis 571 [27] = assay: Broth microdilution MIC and MFC (CLSI); type: cell-based

Methyldecanoyl-MePro-AHMOD-Ala-Aib-Ile-Aib-βAla-Alaol-Glyol [EmiB, emericellipsin B, homologue of emericellipsin A, nonribosomal peptaibol]
Minimal Inhibitory Concentration (MIC) (A. terreus 3 K [1]): 4 µg/mL | Zone of Inhibition (A. niger 1133 m [2]): 11 ± 0.170 mm | Zone of Inhibition [3]: 10 ± 0.13 mm | antifungal activity against Aspergillus strains (in words) [4]: low activity only against A. niger strains | MIC range [5]: 4 to 8 µg/mL | Minimal Inhibitory Concentration (MIC) (A. fumigatus 390 m [6]): 8 µg/mL | Minimal Inhibitory Concentration (MIC) (A. terreus 497 [7]): 4 µg/mL | Minimal Inhibitory Concentration (MIC) (A. niger ATCC 16404): 8 µg/mL | Zone of Inhibition (A. terreus 497 [8]): 0 mm | Minimal Inhibitory Concentration (MIC) (A. fumigatus VKM F-37 [9]): 8 µg/mL | Zone of Inhibition (A. fumigatus 390 m [10]): 0 mm | Minimal Inhibitory Concentration (MIC) (A. niger 1133 m [11]): 8 µg/mL | Zone of Inhibition (A. fumigatus VKM F-37 [12]): 0 mm | Zone of Inhibition (A. terreus 3 K [13]): 0 mm

Methyldecanoyl-MePro-AHMOD-Ala-Iva-Ile-Iva-βAla-Alaol-Glyol [EmiD, emericellipsin D, homologue of emericellipsin A, nonribosomal peptaibol]
Minimal Inhibitory Concentration (MIC) (A. terreus 3 K [1]): 16 µg/mL | Zone of Inhibition (A. niger 1133 m [2]): 0 mm | Zone of Inhibition [3]: 0 mm | antifungal activity against Aspergillus strains (in words) [4]: totally inactive | MIC range [5]: 16 to 32 µg/mL | Minimal Inhibitory Concentration (MIC) (A. fumigatus 390 m [6]): 32 µg/mL | Minimal Inhibitory Concentration (MIC) (A. terreus 497 [7]): 16 µg/mL | Minimal Inhibitory Concentration (MIC) (A. niger ATCC 16404): ˃64 µg/mL | Zone of Inhibition (A. terreus 497 [8]): 0 mm | Minimal Inhibitory Concentration (MIC) (A. fumigatus VKM F-37 [9]): 32 µg/mL | Zone of Inhibition (A. fumigatus 390 m [10]): 0 mm | Minimal Inhibitory Concentration (MIC) (A. niger 1133 m [11]): ˃64 µg/mL | Zone of Inhibition (A. fumigatus VKM F-37 [12]): 0 mm | Zone of Inhibition (A. terreus 3 K [13]): 0 mm

Methyldecanoyl-MePro-AHMOD-Ala-Aib-Ile-Iva-βAla-Aib-Glyol [EmiE, emericellipsin E, homologue of emericellipsin A, nonribosomal peptaibol]
Minimal Inhibitory Concentration (MIC) (A. terreus 3 K [1]): 32 µg/mL | Zone of Inhibition (A. niger 1133 m [2]): 0 mm | Zone of Inhibition [3]: 0 mm | antifungal activity against Aspergillus strains (in words) [4]: totally inactive | MIC range [5]: > 64 µg/mL | Minimal Inhibitory Concentration (MIC) (A. fumigatus 390 m [6]): ˃64 µg/mL | Minimal Inhibitory Concentration (MIC) (A. terreus 497 [7]): 64 µg/mL | Minimal Inhibitory Concentration (MIC) (A. niger ATCC 16404): ˃64 µg/mL | Zone of Inhibition (A. terreus 497 [8]): 0 mm | Minimal Inhibitory Concentration (MIC) (A. fumigatus VKM F-37 [9]): ˃64 µg/mL | Zone of Inhibition (A. fumigatus 390 m [10]): 0 mm | Minimal Inhibitory Concentration (MIC) (A. niger 1133 m [11]): ˃64 µg/mL | Zone of Inhibition (A. fumigatus VKM F-37 [12]): 0 mm | Zone of Inhibition (A. terreus 3 K [13]): 0 mm

C[C@@H]1[C@H](O)[C@@H](C)/C=C/C=C/C=C/C=C/C=C/C=C/C=C/[C@H](O[C@@H]2O[C@H](C)[C@@H](O)[C@H](N)[C@@H]2O)C[C@@H]2O[C@](O)(C[C@@H](O)C[C@@H](O)[C@H](O)CC[C@@H](O)C[C@@H](O)CC(=O)O[C@H]1C)C[C@H](O)[C@H]2C(=O)O [AmpB, Amphotericin B]
MIC (Aspergillus niger 1133m): 1 µg/mL (≈ 1.08 µM) | MIC (C. tropicalis 156 [14]): 0.5 µg/mL (≈ 0.541 µM) | inhibition zones [15]: 10–12 mm | MIC (C. krusei 1447 [16]; Pichia kudriavzevii, 1447, 24 h, pH 7): 2 µg/mL (≈ 2.16 µM) | MFC (C. krusei 1447 [16]; Pichia kudriavzevii, C. krusei 1447, lowest concentration causing 95% death, read-out: MFC): 4 µg/mL (≈ 4.33 µM) | MIC (class symbol) (A. terreus 497 [17]): R | MIC (C. parapsilosis 571 [18]): 1 µg/mL (≈ 1.08 µM) | MIC (Cr. laurentii 325m): 0.5 µg/mL (≈ 0.541 µM) | MIC (A. terreus 3 K [1]; Aspergillus terreus, 3K, pH 7, read-out: Minimal Inhibitory Concentration (MIC)): > 64 µg/mL | zone of inhibition at 40 µg/disc (A. niger 1133 m [2]; Aspergillus niger): 10 ± 0.14 mm | MFC (Candida albicans 1402 [19]; Candida albicans 1402, lowest concentration causing 95% death, plated on PDA agar, read-out: MFC): 0.5 µg/mL (≈ 0.541 µM) | MIC (Candida albicans 1402 [19]; Candida albicans 1402 clinical isolate, RPMI 1640 pH 7.0, 35 °C, 24 h, read-out: MIC): 0.5 µg/mL (≈ 0.541 µM) | MIC [20]: 1 µg/mL (≈ 1.08 µM) | zone of inhibition at 40 µg/disc ([3]; Aspergillus niger, ATCC16404, A. niger ATCC 16404): 0 mm | inhibition zones ([4]; range over clinical isolates of Aspergillus (Figure S2)): 15–17 mm | MIC (A. fumigatus 390 m [6]; Aspergillus fumigatus, 390M, pH 7, read-out: Minimal Inhibitory Concentration (MIC)): 1 µg/mL (≈ 1.08 µM) | MIC (A. terreus 497 [7]; Aspergillus terreus, 497, 48 h, pH 7, read-out: Minimal Inhibitory Concentration (MIC)): > 64 µg/mL | MIC (C. glabrata 1402 [21]): 1 µg/mL (≈ 1.08 µM) | MIC (C. tropicalis 156 [22]; Candida tropicalis, 156, 24 h, pH 7): 0.5 µg/mL (≈ 0.541 µM) | MFC (C. tropicalis 156 [22]; Candida tropicalis, C. tropicalis 156, lowest concentration causing 95% death, read-out: MFC): 1 µg/mL (≈ 1.08 µM) | MIC (A. niger ATCC 16404; Aspergillus niger, ATCC16404, 48 h, pH 7, read-out: Minimal Inhibitory Concentration (MIC)): 1 µg/mL (≈ 1.08 µM) | zone of inhibition at 40 µg/disc (A. terreus 497 [8]; Aspergillus terreus): 0 mm | MIC (A. fumigatus VKM F-37 [9]; Aspergillus fumigatus, VKMF37, 48 h, pH 7, read-out: Minimal Inhibitory Concentration (MIC)): 1 µg/mL (≈ 1.08 µM) | MIC (C. glabrata 1402 [23]; Nakaseomyces glabratus, 1402, 24 h, pH 7): 1 µg/mL (≈ 1.08 µM) | MFC (C. glabrata 1402 [23]; Nakaseomyces glabratus, C. glabrata 1402, lowest concentration causing 95% death, read-out: MFC): 1 µg/mL (≈ 1.08 µM) | MFC ([24]; Cryptococcus neoformans 297, lowest concentration causing 95% death, read-out: MFC): 1 µg/mL (≈ 1.08 µM) | MIC ([24]; Cryptococcus neoformans, 297, 24 h, pH 7): 0.5 µg/mL (≈ 0.541 µM) | MIC (Candida albicans 1402 [25]): 0.5 µg/mL (≈ 0.541 µM) | MIC (C. laurentii 325m; 325M, 24 h, pH 7): 0.25 µg/mL (≈ 0.271 µM) | MFC (C. laurentii 325m; C. laurentii 325m, lowest concentration causing 95% death, read-out: MFC): 0.5 µg/mL (≈ 0.541 µM) | zone of inhibition at 40 µg/disc (A. fumigatus 390 m [10]; Aspergillus fumigatus): 15 ± 0.51 mm | MIC (A. fumigatus 390m): 1 µg/mL (≈ 1.08 µM) | MIC (C. krusei 1447 [26]): 2 µg/mL (≈ 2.16 µM) | MIC (A. niger 1133 m [11]; Aspergillus niger, 1133M, pH 7, read-out: Minimal Inhibitory Concentration (MIC)): 1 µg/mL (≈ 1.08 µM) | zone of inhibition at 40 µg/disc (A. fumigatus VKM F-37 [12]; Aspergillus fumigatus, VKMF37): 12 ± 0.23 mm | MIC (C. parapsilosis 571 [27]; Lodderomyces parapsilosis, 571, 24 h, pH 7): 1 µg/mL (≈ 1.08 µM) | MFC (C. parapsilosis 571 [27]; Lodderomyces parapsilosis, C. parapsilosis 571, lowest concentration causing 95% death, read-out: MFC): 1 µg/mL (≈ 1.08 µM) | zone of inhibition at 40 µg/disc (A. terreus 3 K [13]; Aspergillus terreus): 0 mm
